These results are taken from patent US20120219615A1, “Therapeutic Use of a TLR Agonist and Combination Therapy” (The Trustees of the University of Pennsylvania, priority 2010, published 2012).

This assay deals with OVCAR5 cells. Put plainly: OVCAR5 apoptosis by annexin-V and 7AAD staining. Format: cell-based, human. The procedure: Cell viability Annexin V/7AAD: To detect apoptosis, tumor cells were stained with annexin V/7AAD (BD Pharmingen #559763). Apoptotic cells were analyzed by flow cytometry according to the manufacturer's protocol. Briefly, OVCAR5 cells grown and subjected to different treatments were collected and pelleted at 1200 rpm and then washed twice with ice-cold PBS and re-suspended in a binding buffer (Pharmingen #51-66121 E) at a concentration of 1×10^6 cells/mL; 100 μL of the solution (1×10^5 cells) was transferred to each of two 5-mL culture tubes. Five μL of annexin V-PE (Pharmingen #51-65875Y) and added to each 100 μL solution, gently vortexed, incubated for 15 min at room temperature in the dark, washed with PBS, incubated with 5 μL of 7AAD (BD Pharmingen #51-68981E) for 10 minutes, and analyzed by FACS within 1 h.
Besides tumor-specific CTLs, TLR8 activation may also invoke innate anti-tumor responses, including the release of soluble mediators such as members of the TNF family, which can act directly on tumor cells to induce apoptosis. […] Expression of the TNFα receptor 1 (TNFR1) in OVCAR5 cells was tested and documented by Western blot (FIG. 5C). During the sensitivity test of OVCAR5 cells to TNFα, cells were incubated for 24 hours with 20 ng/ml of TNFα, a dose that exerts direct cytotoxic effects. […]

In the case of TNFα, the “TNFα-mediated apoptosis of OVCAR5 cells” value (20 ng/ml TNFα, 24 hours) is listed as “resistant to TNFα-mediated apoptosis”. For the same substance, the “apoptosis of OVCAR5 cells” value (PLD 1 μg/mL 24 h pre-incubation, then TNFα 20 ng/ml 12 h, or control media) is “minimal apoptosis”.
